The values below come from paper PMC9917025, “(2-Hydroxy-3-Methoxybenzylidene)thiazolo[3,2-a]pyrimidines: Synthesis, Self-Assembly in the Crystalline Phase and Cytotoxic Activity” (International Journal of Molecular Sciences, 2023).

Data set [1] relates to M-HeLa clone 11 (epithelioid carcinoma of the cervix, subline HeLa, clone M-HeLa). Briefly: MTT cytotoxicity assay, M-HeLa cells. The class given is cell-based. As to conditions: for IC50: Homo sapiens, M-HeLa, MTT, 48 h incubation, mean ± SD, triplicate; for selectivity index (SI): ratio between IC50 for normal cells and IC50 for tumor cells, with respect to M-HeLa cell line. The text has this: (§1) For the experiments, the tumor cell cultures of M-HeLa clone 11 (epithelioid carcinoma of the cervix, subline HeLa., clone M-HeLa), HuTu 80, human duodenal adenocarcinoma, MCF7—human breast adenocarcinoma (pleural fluid) collected from the Institute of Cytology, Russian Academy of Sciences (St. Petersburg, Russia); PC3—prostate adenocarcinoma cell line collected from ATCC (American Type Cell Collection, Manassas, VA, USA; CRL 1435; human liver cells (Chang liver) and the Research Institute of Virology of the Russian Academy of Medical Sciences (Moscow, Russia) were used for cytotoxicity analysis.
(§2) The cytotoxic effect on cells was determined by the colorimetric method of cell proliferation—MTT test. The cells were seeded on a 96-well Nunc plate at a concentration of 5 × 10^3 cells per well in a volume of 100 µL of medium and cultured in a CO2 incubator at 37 °C until a monolayer was formed. Then, the nutrient medium was removed and 100 μL of the test drug solution in these dilutions was added to the wells prepared directly in the nutrient medium with the addition of 5% DMSO to improve solubility. After 48 h of cell incubation with test compounds, the nutrient medium was removed from the plates and 100 μL of serum-free nutrient medium with MTT at a concentration of 0.5 mg/mL was added and incubated for 4 h at 37 °C. C. Formazan crystals were added to 100 µL of DMSO. The optical density was recorded at 540 nm on an Invitrologic microplate reader (Novosibirsk, Russia). The experiments for all compounds were repeated three times.
(In general: Formazan colour is commonly taken as a measure of viable cells.)

Data set [2] deals with MCF−7 (human breast adenocarcinoma). Put plainly: MTT cytotoxicity assay, MCF-7 cells. The class given is cell-based. To be noted: MCF7, 48 h incubation, mean ± SD, triplicate. On the procedure: The cytotoxic effect on cells was determined by the colorimetric method of cell proliferation—MTT test. […] C. Formazan crystals were added to 100 µL of DMSO. The optical density was recorded at 540 nm on an Invitrologic microplate reader (Novosibirsk, Russia). The experiments for all compounds were repeated three times.

Data set [3] deals with Chang liver (HeLa derivative), human liver cells. Put plainly: MTT cytotoxicity assay, normal Chang liver cells. In kind it is cell-based. As to conditions: for IC50: Homo sapiens, HeLa, MTT, 48 h incubation, mean ± SD, triplicate, read-out: IC50 (µM) Chang Liver (HeLa), normal cell line.
From the text: as §1, §2

Data set [4] concerns PC3 (prostate adenocarcinoma cell line). Put plainly: MTT cytotoxicity assay, PC3 cells. In kind it is cell-based. As to conditions: Homo sapiens, PC-3, 48 h incubation, mean ± SD, triplicate.
From the text: as §1, §2

For data set [5], the system named is HuTu 80 (human duodenal adenocarcinoma). Put plainly: MTT cytotoxicity assay, HuTu 80 cells. To be noted: for IC50: Homo sapiens, HuTu80, MTT, 48 h incubation, mean ± SD, triplicate. In kind it is cell-based.
From the text: as §1, §2

A value given as a limit tells only on which side of the number the result lay.

What is called IC50 is the concentration that gives 50% inhibition. Usually melting point stands for the temperature of the solid-liquid transition. Compound `COc1cccc(/C=c2\sc3n(c2=O)C(c2ccc(C)cc2)C(C(C)=O)=C(C)N=3)c1O` (stereo not shown) [Compound 1, 6-Acetyl-(Z)−2-(2-hydroxy−3-methoxybenzylidene)−7-methyl−5-(p-tolyl)−2H-thiazolo[3,2-a]pyrimidine−3(5H)-one] registered a melting point of 209 to 211 °C. In data set [1], this compound displayed an IC50 of 88 ± 7 µM. In data set [2], this compound had a concentration for half-maximal inhibition (IC50) above 100 µM. Moreover, the half-maximal inhibitory concentration (IC50) in data set [3] is above 100 µM. The same compound had an IC50 in data set [4] of 57.4 ± 4.5 µM. In addition, the 50% inhibitory concentration (IC50) in data set [5] was 88 ± 6.9 µM.
Compound `CCOC(=O)C1=C(C)N=c2s/c(=C\c3cccc(OC)c3O)c(=O)n2C1c1cccc([N+](=O)[O-])c1` (stereo not shown) [Compound 2, Ethyl (Z)−2-(2-hydroxy−3-methoxybenzylidene)−7-methyl−5-(3-nitrophenyl)−3-oxo−2,3-dihydro−5H-thiazolo[3,2-a]pyrimidine−6-carboxylate] had a melting point of 206 to 208 °C. In addition, in data set [1], the “cytotoxicity against M-HeLa (in words)” value is given as “high cytotoxicity”; the midpoint of inhibition, the IC50, lay at 16.2 ± 1.3 µM; the “selectivity index (SI)” value is reported as “higher than 6”. Besides, the “efficiency of cytotoxicity towards M-HeLa compared to Sorafenib” value in data set [1] (relative to reference drug Sorafenib) is “two times higher”. In data set [2], this compound showed a half-maximal inhibitory concentration (IC50) of 72 ± 5.8 µM. Besides, in data set [3], the “activity on normal cells, Chang liver (in words)” value was “low biological activity” and the IC50 was above 100 µM. The concentration for half-maximal inhibition (IC50) in data set [4] is above 100 µM. In addition, the half-inhibitory concentration (IC50) in data set [5] stood at 90 ± 8 µM.
`CCOC(=O)C1=C(C)N=c2s/c(=C\c3cccc(OC)c3O)c(=O)n2C1c1ccccc1OC` (stereo not shown) [Compound 3, Ethyl (Z)-2-(2-hydroxy-3-methoxybenzylidene)-7-methyl-5-(2-methoxyphenyl)-3-oxo-2,3-dihydro-5H-thiazolo[3,2-a]pyrimidine-6-carboxylate] gave a melting point of 193 to 195 °C. Also, the IC50 in data set [1] turned out to be 98.1 ± 7.7 µM. In data set [2], this compound returned an IC50 above 100 µM. In addition, the IC50 in data set [3] amounted to 96 ± 7.5 µM. This compound had a concentration for half-maximal inhibition (IC50) in data set [4] of 54.1 ± 4.3 µM. In data set [5], this compound displayed a 50% inhibitory concentration (IC50) above 100 µM.
In the case of `CCOC(=O)C1=C(C)N=c2s/c(=C\c3cccc(OC)c3O)c(=O)n2C1c1ccccc1` (stereo not shown) [Compound 4, Ethyl (Z)−2-(2-hydroxy−3-methoxybenzylidene)−7-methyl−5-phenyl−3-oxo−2,3-dihydro−5H-thiazolo[3,2-a]pyrimidine−6-carboxylate], the melting point lay within 231 to 233 °C. Besides, the IC50 in data set [1] is above 100 µM. In addition, the half-maximal inhibitory concentration (IC50) in data set [2] is above 100 µM. Besides, the IC50 in data set [3] was above 100 µM. The compound further came in with a half-maximal inhibitory concentration (IC50) in data set [4] above 100 µM. Besides, the IC50 in data set [5] is above 100 µM.
In turn, `CCOC(=O)C1=C(C)N=c2s/c(=C\c3cccc(OC)c3O)c(=O)n2C1c1cccc(Br)c1` (stereo not shown) [Compound 5, Ethyl 5-(3-bromophenyl)-(Z)−2-(2-hydroxy−3-methoxybenzylidene)−7-methyl−3-oxo−2,3-dihydro−5H-thiazolo[3,2-a]pyrimidine−6-carboxylate] returned a melting point of 190 to 192 °C. The same compound showed an IC50 in data set [1] above 100 µM. For the same compound, the IC50 in data set [2] was above 100 µM. Also, in data set [3], the “activity on normal cells, Chang liver (in words)” value is “Moderate cytotoxicity” and the IC50 is 51.4 ± 4.1 µM. In data set [4], this compound gave a half-maximal inhibitory concentration (IC50) above 100 µM. Further, in data set [5], the “cytotoxicity towards HuTu 80 (in words)” value is listed as “Moderate cytotoxicity” and the IC50 came to 43.3 ± 3.4 µM.
Regarding `CCOC(=O)C1=C(C)N=c2s/c(=C\c3cccc(OC)c3O)c(=O)n2C1c1ccc(Br)cc1` (stereo not shown) [Compound 6, Ethyl 5-(4-bromophenyl)-(Z)−2-(2-hydroxy−3-methoxybenzylidene)−7-methyl−3-oxo−2,3-dihydro−5H-thiazolo[3,2-a]pyrimidine−6-carboxylate], the melting point lay in the range of 234 to 236 °C. Further, in data set [1], 85 ± 7.8 µM corresponded to half-maximal inhibition (IC50). Further, the IC50 in data set [2] is above 100 µM. The IC50 in data set [3] is 64.2 ± 5.1 µM. Besides, the concentration for half-maximal inhibition (IC50) in data set [4] is 100 ± 8.6 µM. Also, in data set [5], half-maximal inhibition (IC50) was put at 90.3 ± 8.1 µM.
For `CNC(=O)c1cc(Oc2ccc(NC(=O)Nc3ccc(Cl)c(C(F)(F)F)c3)cc2)ccn1` [Sorafenib, reference compound], the 50% inhibitory concentration (IC50) in data set [1] came to 25 ± 1.8 µM; in data set [4], 12.7 ± 1.1 µM; in data set [5], 13 ± 1.2 µM. The “selectivity index (SI)” value in data set [1] is on record as “lower than 1”.
